Experimental data as given in the kinase profiling compilation of Christmann-Franck et al. (2016).
Several values for one entry are separate records, joined by “and”; a condition that tells them apart may be missing. Equal values may be shown once.

Key:
EGFR (human) = EGFR (human) (UniProt P00533); test: KINOMEscan competition binding; details: compound 10.0 µM
[1] = system: EGFR (human), P00533 [747-751 del / S ins]; test: KINOMEscan competition binding; details: compound 10.0 µM
[2] = system: EGFR (human), P00533 [752-759 del]; test: KINOMEscan competition binding; details: compound 10.0 µM
[3] = system: EGFR (human), P00533 [A750P; 747-749 del]; test: KINOMEscan competition binding; details: compound 10.0 µM
[4] = system: EGFR (human), P00533 [G719C; 746-750 del]; test: KINOMEscan competition binding; details: compound 10.0 µM
[5] = system: EGFR (human), P00533 [G719S]; test: KINOMEscan competition binding; details: compound 10.0 µM
[6] = system: EGFR (human), P00533 [L858R]; test: KINOMEscan competition binding; details: compound 10.0 µM
[7] = system: EGFR (human), P00533 [L861Q]; test: KINOMEscan competition binding; details: compound 10.0 µM
[8] = system: EGFR (human), P00533 [P753S; 747-752 del]; test: KINOMEscan competition binding; details: compound 10.0 µM
GAK (human) = GAK (human) (UniProt O14976); test: KINOMEscan competition binding; details: compound 10.0 µM
PLK1 (human) = PLK1 (human) (UniProt P53350); test: KINOMEscan competition binding; details: compound 10.0 µM
PLK3 (human) = PLK3 (human) (UniProt Q9H4B4); test: KINOMEscan competition binding; details: compound 10.0 µM
PTK2 (human) = PTK2 (human) (UniProt Q05397); test: KINOMEscan competition binding; details: compound 10.0 µM
PTK2B (human) = PTK2B (human) (UniProt Q14289); test: KINOMEscan competition binding; details: compound 10.0 µM
TTK (human) [9] = target: TTK (human) (UniProt P33981); test: KINOMEscan competition binding; details: for kinase still bound, per cent of control: compound 10.0 µM
ALK (human) = ALK (human) (UniProt Q9UM73); test: KINOMEscan competition binding; details: compound 10.0 µM
CAMKK2 (human) = CAMKK2 (human) (UniProt Q96RR4); test: KINOMEscan competition binding; details: compound 10.0 µM
DAPK2 (human) = DAPK2 (human) (UniProt Q9UIK4); test: KINOMEscan competition binding; details: compound 10.0 µM
DAPK3 (human) = DAPK3 (human) (UniProt O43293); test: KINOMEscan competition binding; details: compound 10.0 µM
DCLK1 (human) = DCLK1 (human) (UniProt O15075); test: KINOMEscan competition binding; details: compound 10.0 µM
FER (human) = FER (human) (UniProt P16591); test: KINOMEscan competition binding; details: compound 10.0 µM
FGFR4 (human) = FGFR4 (human) (UniProt P22455); test: KINOMEscan competition binding; details: compound 10.0 µM
IGF1R (human) = IGF1R (human) (UniProt P08069); test: KINOMEscan competition binding; details: compound 10.0 µM
INSR (human) = INSR (human) (UniProt P06213); test: KINOMEscan competition binding; details: compound 10.0 µM
INSRR (human) = INSRR (human) (UniProt P14616); test: KINOMEscan competition binding; details: compound 10.0 µM
MET (human) = MET (human) (UniProt P08581); test: KINOMEscan competition binding; details: compound 10.0 µM
MKNK2 (human) = MKNK2 (human) (UniProt Q9HBH9); test: KINOMEscan competition binding; details: compound 10.0 µM
MYLK (human) = MYLK (human) (UniProt Q15746); test: KINOMEscan competition binding; details: compound 10.0 µM
PLK4 (human) = PLK4 (human) (UniProt O00444); test: KINOMEscan competition binding; details: compound 10.0 µM
RPS6KA2 KD2 (human) = RPS6KA2 KD2 (human) (UniProt Q15349); test: KINOMEscan competition binding; details: compound 10.0 µM
SLK (human) = SLK (human) (UniProt Q9H2G2); test: KINOMEscan competition binding; details: compound 10.0 µM
STK33 (human) = STK33 (human) (UniProt Q9BYT3); test: KINOMEscan competition binding; details: compound 10.0 µM
TNK1 (human) = TNK1 (human) (UniProt Q13470); test: KINOMEscan competition binding; details: compound 10.0 µM
ULK2 (human) = ULK2 (human) (UniProt Q8IYT8); test: KINOMEscan competition binding; details: compound 10.0 µM
TTK (human) [10] = target: TTK (human) (UniProt P33981); test: SelectScreen, TR FRET

Chain of TTK (human) (P33981 whole entry, looked up): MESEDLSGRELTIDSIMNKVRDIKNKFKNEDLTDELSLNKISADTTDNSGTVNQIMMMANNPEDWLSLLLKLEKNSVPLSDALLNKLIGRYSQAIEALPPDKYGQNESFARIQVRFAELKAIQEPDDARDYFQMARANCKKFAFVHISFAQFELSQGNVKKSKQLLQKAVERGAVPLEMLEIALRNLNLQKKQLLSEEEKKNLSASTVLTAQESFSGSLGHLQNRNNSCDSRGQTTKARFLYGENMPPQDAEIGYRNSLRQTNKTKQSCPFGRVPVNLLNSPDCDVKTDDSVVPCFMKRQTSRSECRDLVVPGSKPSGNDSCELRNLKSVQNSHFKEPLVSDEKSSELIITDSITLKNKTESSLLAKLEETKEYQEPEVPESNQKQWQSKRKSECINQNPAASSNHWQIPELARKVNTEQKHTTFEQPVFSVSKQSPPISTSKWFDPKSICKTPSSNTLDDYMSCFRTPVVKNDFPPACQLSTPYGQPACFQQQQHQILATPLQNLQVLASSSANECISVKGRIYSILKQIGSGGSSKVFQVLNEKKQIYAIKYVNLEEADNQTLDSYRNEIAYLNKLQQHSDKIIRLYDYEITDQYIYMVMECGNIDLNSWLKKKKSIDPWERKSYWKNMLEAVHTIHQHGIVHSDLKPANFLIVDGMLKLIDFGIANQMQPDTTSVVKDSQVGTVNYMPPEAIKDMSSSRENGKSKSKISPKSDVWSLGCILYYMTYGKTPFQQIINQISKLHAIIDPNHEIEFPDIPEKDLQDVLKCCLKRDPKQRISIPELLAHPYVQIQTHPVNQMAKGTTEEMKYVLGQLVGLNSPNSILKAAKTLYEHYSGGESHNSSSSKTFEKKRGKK
Chain of PLK3 (human) (Q9H4B4 whole entry, looked up): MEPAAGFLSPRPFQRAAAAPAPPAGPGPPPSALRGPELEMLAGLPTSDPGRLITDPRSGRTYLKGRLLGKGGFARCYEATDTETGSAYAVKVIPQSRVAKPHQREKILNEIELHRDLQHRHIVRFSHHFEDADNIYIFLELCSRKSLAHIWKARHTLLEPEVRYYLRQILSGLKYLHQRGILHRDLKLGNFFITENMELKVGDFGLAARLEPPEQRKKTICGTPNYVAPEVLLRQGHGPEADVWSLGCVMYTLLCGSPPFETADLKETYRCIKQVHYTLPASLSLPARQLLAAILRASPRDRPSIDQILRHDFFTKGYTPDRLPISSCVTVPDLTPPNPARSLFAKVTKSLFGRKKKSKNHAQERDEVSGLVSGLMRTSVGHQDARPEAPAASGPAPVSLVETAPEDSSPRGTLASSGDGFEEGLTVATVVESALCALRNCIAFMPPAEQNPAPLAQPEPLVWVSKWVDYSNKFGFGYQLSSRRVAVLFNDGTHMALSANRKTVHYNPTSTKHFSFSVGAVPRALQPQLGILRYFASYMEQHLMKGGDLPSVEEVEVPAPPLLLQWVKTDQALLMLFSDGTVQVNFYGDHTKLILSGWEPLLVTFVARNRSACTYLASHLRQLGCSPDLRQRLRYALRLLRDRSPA
Chain of PTK2 (human) (Q05397 whole entry, looked up): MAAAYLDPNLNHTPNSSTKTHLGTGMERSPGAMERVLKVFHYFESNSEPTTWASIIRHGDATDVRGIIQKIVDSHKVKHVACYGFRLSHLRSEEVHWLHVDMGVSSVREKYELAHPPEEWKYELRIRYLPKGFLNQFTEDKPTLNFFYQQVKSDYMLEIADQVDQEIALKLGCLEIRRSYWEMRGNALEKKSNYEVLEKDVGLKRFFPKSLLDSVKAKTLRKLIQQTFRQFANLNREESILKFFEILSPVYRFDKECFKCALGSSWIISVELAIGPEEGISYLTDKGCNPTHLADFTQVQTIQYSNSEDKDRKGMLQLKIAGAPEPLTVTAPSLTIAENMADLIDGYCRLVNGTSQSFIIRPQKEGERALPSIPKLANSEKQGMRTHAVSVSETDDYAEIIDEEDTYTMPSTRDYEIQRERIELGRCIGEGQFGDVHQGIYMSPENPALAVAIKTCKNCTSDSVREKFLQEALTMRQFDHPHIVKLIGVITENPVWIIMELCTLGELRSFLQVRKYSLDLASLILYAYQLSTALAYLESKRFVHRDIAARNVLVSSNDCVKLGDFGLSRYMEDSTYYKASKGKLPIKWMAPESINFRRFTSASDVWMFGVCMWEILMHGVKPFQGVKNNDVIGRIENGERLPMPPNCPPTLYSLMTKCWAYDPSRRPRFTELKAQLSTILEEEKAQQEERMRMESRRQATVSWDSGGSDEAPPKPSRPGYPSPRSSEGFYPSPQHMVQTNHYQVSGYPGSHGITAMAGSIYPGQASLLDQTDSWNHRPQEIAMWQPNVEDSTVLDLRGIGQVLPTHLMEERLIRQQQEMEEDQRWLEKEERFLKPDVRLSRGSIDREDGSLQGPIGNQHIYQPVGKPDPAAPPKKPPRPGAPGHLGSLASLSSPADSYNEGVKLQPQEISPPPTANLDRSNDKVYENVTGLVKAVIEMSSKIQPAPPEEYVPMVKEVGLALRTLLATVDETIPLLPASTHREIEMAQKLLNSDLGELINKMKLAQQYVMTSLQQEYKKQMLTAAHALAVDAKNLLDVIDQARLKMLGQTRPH
Chain of GAK (human) (O14976 whole entry, looked up): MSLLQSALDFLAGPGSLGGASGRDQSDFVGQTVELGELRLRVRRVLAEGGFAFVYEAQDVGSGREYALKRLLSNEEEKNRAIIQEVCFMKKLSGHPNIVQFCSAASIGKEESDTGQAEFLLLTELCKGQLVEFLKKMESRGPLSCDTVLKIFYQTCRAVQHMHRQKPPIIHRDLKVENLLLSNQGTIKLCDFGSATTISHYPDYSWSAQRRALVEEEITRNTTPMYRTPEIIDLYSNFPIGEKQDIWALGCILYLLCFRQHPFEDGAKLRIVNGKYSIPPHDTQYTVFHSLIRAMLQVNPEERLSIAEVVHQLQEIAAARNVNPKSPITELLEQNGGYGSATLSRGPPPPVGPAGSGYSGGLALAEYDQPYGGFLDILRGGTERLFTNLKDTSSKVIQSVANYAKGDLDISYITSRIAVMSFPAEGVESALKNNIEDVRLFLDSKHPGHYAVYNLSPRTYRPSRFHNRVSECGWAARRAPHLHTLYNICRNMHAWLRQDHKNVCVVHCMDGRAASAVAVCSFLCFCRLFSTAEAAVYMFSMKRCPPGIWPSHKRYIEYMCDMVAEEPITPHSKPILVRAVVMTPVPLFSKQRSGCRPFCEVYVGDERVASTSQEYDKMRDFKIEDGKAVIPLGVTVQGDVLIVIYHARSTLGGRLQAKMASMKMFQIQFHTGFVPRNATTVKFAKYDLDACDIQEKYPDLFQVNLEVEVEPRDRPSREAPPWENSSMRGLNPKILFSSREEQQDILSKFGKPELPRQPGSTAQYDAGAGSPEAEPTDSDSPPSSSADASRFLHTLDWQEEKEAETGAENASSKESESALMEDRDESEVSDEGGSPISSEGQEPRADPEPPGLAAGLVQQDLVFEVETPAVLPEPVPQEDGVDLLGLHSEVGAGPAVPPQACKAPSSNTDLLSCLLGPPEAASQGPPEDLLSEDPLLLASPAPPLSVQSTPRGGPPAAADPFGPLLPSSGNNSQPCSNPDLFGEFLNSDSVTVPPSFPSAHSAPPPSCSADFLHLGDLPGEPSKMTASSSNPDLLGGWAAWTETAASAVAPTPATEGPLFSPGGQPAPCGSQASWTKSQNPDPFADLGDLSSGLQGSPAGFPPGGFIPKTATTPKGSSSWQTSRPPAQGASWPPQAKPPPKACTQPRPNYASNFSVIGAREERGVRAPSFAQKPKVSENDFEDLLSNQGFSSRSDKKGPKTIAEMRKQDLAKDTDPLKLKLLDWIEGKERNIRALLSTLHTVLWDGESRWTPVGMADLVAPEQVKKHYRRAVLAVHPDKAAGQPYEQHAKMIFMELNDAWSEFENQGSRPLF
Chain of PLK1 (human) (P53350 whole entry, looked up): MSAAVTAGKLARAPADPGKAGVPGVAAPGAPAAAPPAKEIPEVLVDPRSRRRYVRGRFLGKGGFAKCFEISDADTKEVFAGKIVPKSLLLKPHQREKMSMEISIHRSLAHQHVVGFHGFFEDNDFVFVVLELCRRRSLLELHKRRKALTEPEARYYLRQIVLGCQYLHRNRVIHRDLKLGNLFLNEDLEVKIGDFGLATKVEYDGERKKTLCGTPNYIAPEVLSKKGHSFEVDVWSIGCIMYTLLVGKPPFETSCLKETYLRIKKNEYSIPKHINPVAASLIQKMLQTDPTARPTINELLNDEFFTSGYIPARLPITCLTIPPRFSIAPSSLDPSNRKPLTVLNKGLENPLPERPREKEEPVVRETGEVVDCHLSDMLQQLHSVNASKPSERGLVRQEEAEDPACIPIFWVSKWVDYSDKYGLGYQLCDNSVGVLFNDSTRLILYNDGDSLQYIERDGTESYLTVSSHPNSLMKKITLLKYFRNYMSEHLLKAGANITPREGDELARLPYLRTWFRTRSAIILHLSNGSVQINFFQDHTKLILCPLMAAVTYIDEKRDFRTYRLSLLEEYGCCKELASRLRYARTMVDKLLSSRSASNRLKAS
Chain of STK33 (human) (Q9BYT3 whole entry, looked up): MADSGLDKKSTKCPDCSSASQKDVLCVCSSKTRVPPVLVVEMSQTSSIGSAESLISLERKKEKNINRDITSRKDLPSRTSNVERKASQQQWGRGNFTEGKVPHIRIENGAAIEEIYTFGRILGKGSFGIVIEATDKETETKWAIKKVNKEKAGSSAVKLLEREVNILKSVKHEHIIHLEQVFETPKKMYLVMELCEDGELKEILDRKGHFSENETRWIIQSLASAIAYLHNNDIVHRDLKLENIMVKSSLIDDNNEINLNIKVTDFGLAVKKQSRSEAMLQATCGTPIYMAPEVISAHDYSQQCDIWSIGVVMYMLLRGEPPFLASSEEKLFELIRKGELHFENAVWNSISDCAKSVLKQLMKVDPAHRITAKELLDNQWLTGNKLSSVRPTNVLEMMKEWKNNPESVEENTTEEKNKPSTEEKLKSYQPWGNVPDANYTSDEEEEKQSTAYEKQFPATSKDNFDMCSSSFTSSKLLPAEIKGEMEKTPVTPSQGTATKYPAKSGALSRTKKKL

SMILES: COc1cc(N2CCC(O)CC2)ccc1Nc1ncc2c(n1)N(c1ccccc1)CCC(=O)N2C
- kinase still bound, per cent of control (EGFR (human)): 24%
- kinase still bound, per cent of control [1]: 12%
- kinase still bound, per cent of control [2]: 21%
- kinase still bound, per cent of control [3]: 21%
- kinase still bound, per cent of control [4]: 30%
- kinase still bound, per cent of control [5]: 23%
- kinase still bound, per cent of control [6]: 30%
- kinase still bound, per cent of control [7]: 25%
- kinase still bound, per cent of control [8]: 15%
- kinase still bound, per cent of control (GAK (human)): 2%
- kinase still bound, per cent of control (PLK1 (human)): 1.2%
- kinase still bound, per cent of control (PLK3 (human)): 21%
- kinase still bound, per cent of control (PTK2 (human)): 19%
- kinase still bound, per cent of control (PTK2B (human)): 22%
- kinase still bound, per cent of control (TTK (human) [9]): 5%

SMILES: COc1cc(N2CCC(C)(O)CC2)ccc1Nc1ncc2c(n1)N(C1CCCC1)CCC(=O)N2C
- kinase still bound, per cent of control (ALK (human)): 22%
- kinase still bound, per cent of control (CAMKK2 (human)): 20%
- kinase still bound, per cent of control (DAPK2 (human)): 29%
- kinase still bound, per cent of control (DAPK3 (human)): 34%
- kinase still bound, per cent of control (DCLK1 (human)): 20%
- kinase still bound, per cent of control (EGFR (human)): 17% and 29%
- kinase still bound, per cent of control [1]: 6.2%
- kinase still bound, per cent of control [2]: 10%
- kinase still bound, per cent of control [3]: 4%
- kinase still bound, per cent of control [4]: 10%
- kinase still bound, per cent of control [5]: 14%
- kinase still bound, per cent of control [6]: 17%
- kinase still bound, per cent of control [7]: 6.6%
- kinase still bound, per cent of control [8]: 6.6%
- kinase still bound, per cent of control (FER (human)): 18%
- kinase still bound, per cent of control (FGFR4 (human)): 34%
- kinase still bound, per cent of control (GAK (human)): 1.2%
- kinase still bound, per cent of control (IGF1R (human)): 14%
- kinase still bound, per cent of control (INSR (human)): 28%
- kinase still bound, per cent of control (INSRR (human)): 30%
- kinase still bound, per cent of control (MET (human)): 9.1%
- kinase still bound, per cent of control (MKNK2 (human)): 13%
- kinase still bound, per cent of control (MYLK (human)): 31%
- kinase still bound, per cent of control (PLK1 (human)): 0.2%
- kinase still bound, per cent of control (PLK3 (human)): 1.8%
- kinase still bound, per cent of control (PLK4 (human)): 8.2%
- kinase still bound, per cent of control (PTK2 (human)): 6.2%
- kinase still bound, per cent of control (PTK2B (human)): 3.1%
- kinase still bound, per cent of control (RPS6KA2 KD2 (human)): 30%
- kinase still bound, per cent of control (SLK (human)): 31%
- kinase still bound, per cent of control (STK33 (human)): 12%
- kinase still bound, per cent of control (TNK1 (human)): 11%
- Kd (TTK (human) [9]): 20.5 nM
- kinase still bound, per cent of control (TTK (human) [9]): 3.8%
- kinase still bound, per cent of control (ULK2 (human)): 26%
- IC50 (TTK (human) [10]): 254 nM
